Results published in ChEMBL document CHEMBL4393707, “Synthesis and evaluation of new quinazolin-4(3H)-one derivatives as potent antibacterial agents against multidrug resistant Staphylococcus aureus and Mycobacterium tuberculosis” (Eur J Med Chem, 2019).
Values after ≈ are worked out from the molar mass of the structure shown. Active and inactive are the calls of the source. No cut-off for these calls is given here.

Experiments:
[1] = test system: Staphylococcus aureus; experiment: Antimicrobial activity against Staphylococcus aureus ATCC 29213 infected in BALB/c mouse model of neutropenic thigh infection assessed reduction in bacterial levels in thigh at 50 mg/kg, ip administered 3 hrs post infection twice at interval of 3 hrs between injections and measured after 24 hrs; format: functional, organism-based
[2] = test system: Staphylococcus aureus; experiment: Antibacterial activity against vancomycin-resistant Staphylococcus aureus VRS1 incubated for 16 to 18 hrs by broth microdilution assay; format: functional
[3] = test system: Staphylococcus aureus; experiment: Potentiation of meropenem-induced antibacterial activity against Staphylococcus aureus ATCC 29213 assessed as meropenem MIC incubated for 24 hrs by checkerboard titration assay (reference value: 0.25 ug/ml); format: functional; conditions: ATCC 29213, 24 h
[4] = test system: Staphylococcus aureus; experiment: Antimicrobial activity against Staphylococcus aureus ATCC 29213 infected in ip dosed BALB/c mouse model of neutropenic thigh infection assessed reduction in bacterial levels administered 3 hrs post infection twice at interval of 3 hrs between injections and measured after 24 hrs; format: functional, organism-based
[5] = test system: Staphylococcus aureus; experiment: Potentiation of daptomycin-induced antibacterial activity against Staphylococcus aureus ATCC 29213 assessed as daptomycin MIC incubated for 24 hrs by checkerboard titration assay (reference value: 0.5 ug/ml); format: functional; conditions: ATCC 29213, 24 h
[6] = test system: Staphylococcus aureus; experiment: Antibacterial activity against Staphylococcus aureus ATCC 29213 incubated for 16 to 18 hrs by broth microdilution assay; format: functional
[7] = test system: Staphylococcus aureus; experiment: Potentiation of linezolid-induced antibacterial activity against Staphylococcus aureus ATCC 29213 assessed as linezolid MIC incubated for 24 hrs by checkerboard titration assay (reference value: 2 ug/ml); format: functional; conditions: ATCC 29213, 24 h
[8] = test system: Staphylococcus aureus; experiment: Potentiation of ceftazidime-induced antibacterial activity against Staphylococcus aureus ATCC 29213 assessed as ceftazidime MIC incubated for 24 hrs by checkerboard titration assay (reference value: […] ug/ml); format: functional; conditions: ATCC 29213, 24 h
[9] = test system: Staphylococcus aureus; experiment: Antibacterial activity against Staphylococcus aureus ATCC 29213 assessed as time required to increase 1 log10 CFU at MIC incubated for 1 hr followed by compound washout and measured at 1 hr intervals (reference value: 2 hrs); format: functional
[10] = test system: Staphylococcus aureus; experiment: Synergistic antibacterial activity against Staphylococcus aureus ATCC 29213 incubated for 24 hrs in presence of meropenem by checkerboard titration assay; format: functional; conditions: ATCC 29213, 24 h
[11] = test system: Staphylococcus aureus; experiment: Synergistic antibacterial activity against Staphylococcus aureus ATCC 29213 assessed as FIC incubated for 24 hrs in presence of levofloxacin by checkerboard titration assay; format: functional
[12] = test system: Staphylococcus aureus; experiment: Potentiation of minocycline-induced antibacterial activity against Staphylococcus aureus ATCC 29213 assessed as minocycline MIC incubated for 24 hrs by checkerboard titration assay (reference value: 0.125 ug/ml); format: functional; conditions: ATCC 29213, 24 h
[13] = test system: Staphylococcus aureus; experiment: Potentiation of rifampicin-induced antibacterial activity against Staphylococcus aureus ATCC 29213 assessed as rifampicin MIC incubated for 24 hrs by checkerboard titration assay (reference value: […] ug/ml); format: functional; conditions: ATCC 29213, 24 h
[14] = test system: Staphylococcus aureus; experiment: Antibacterial activity against Staphylococcus aureus ATCC 29213 assessed as post antibiotic effect time at 10 times MIC incubated for 1 hr followed by compound washout and measured at 1 hr intervals (reference value: 0 hrs); format: functional
[15] = test system: Staphylococcus aureus; experiment: Potentiation of vancomycin-induced antibacterial activity against Staphylococcus aureus ATCC 29213 assessed as vancomycin MIC incubated for 24 hrs by checkerboard titration assay (reference value: 1 ug/ml); format: functional; conditions: ATCC 29213, 24 h
[16] = test system: Staphylococcus aureus; experiment: Potentiation of rifampicin-induced antibacterial activity against Staphylococcus aureus ATCC 29213 assessed as FIC incubated for 24 hrs by checkerboard titration assay; format: functional
[17] = test system: Staphylococcus aureus; experiment: Antimicrobial activity against Staphylococcus aureus ATCC 29213 infected in BALB/c mouse model of neutropenic thigh infection assessed reduction in bacterial levels in thigh at 25 mg/kg, ip administered 3 hrs post infection twice at interval of 3 hrs between injections and measured after 24 hrs; format: functional, organism-based
[18] = test system: Staphylococcus aureus; experiment: Antibacterial activity against methicillin-resistant Staphylococcus aureus NR10198 incubated for 16 to 18 hrs by broth microdilution assay; format: functional
[19] = test system: Staphylococcus aureus; experiment: Synergistic antibacterial activity against Staphylococcus aureus ATCC 29213 assessed as FIC incubated for 24 hrs in presence of linezolid by checkerboard titration assay; format: functional
[20] = test system: Pseudomonas aeruginosa; experiment: Antibacterial activity against Pseudomonas aeruginosa ATCC 27853 incubated for 16 to 18 hrs by broth microdilution assay; format: functional
[21] = test system: Staphylococcus aureus; experiment: Antibacterial activity against Staphylococcus aureus ATCC 29213 assessed as time required to increase 1 log10 CFU at 10 times MIC incubated for 1 hr followed by compound washout and measured at 1 hr intervals (reference value: 2 hrs); format: functional
[22] = test system: Staphylococcus aureus; experiment: Synergistic antibacterial activity against Staphylococcus aureus ATCC 29213 incubated for 24 hrs in presence of gentamycin by checkerboard titration assay; format: functional; conditions: ATCC 29213, 24 h
[23] = test system: Staphylococcus aureus; experiment: Antibacterial activity against Staphylococcus aureus ATCC 29213 assessed as post antibiotic effect time at MIC incubated for 1 hr followed by compound washout and measured at 1 hr intervals (reference value: 0 hrs); format: functional
[24] = test system: Staphylococcus aureus; experiment: Potentiation of meropenem-induced antibacterial activity against Staphylococcus aureus ATCC 29213 assessed as FIC incubated for 24 hrs by checkerboard titration assay; format: functional
[25] = test system: Staphylococcus aureus; experiment: Synergistic antibacterial activity against Staphylococcus aureus ATCC 29213 assessed as sum of FIC for test compound in presence of minocycline and FIC for minocycline in presence of test compound incubated for 24 hrs by checkerboard titration assay; format: functional
[26] = test system: Staphylococcus aureus; experiment: Synergistic antibacterial activity against Staphylococcus aureus ATCC 29213 assessed as sum of FIC for test compound in presence of meropenem and FIC for meropenem in presence of test compound incubated for 24 hrs by checkerboard titration assay; format: functional
[27] = test system: Staphylococcus aureus; experiment: Antibacterial activity against methicillin-resistant Staphylococcus aureus NR10193 incubated for 16 to 18 hrs by broth microdilution assay; format: functional
[28] = test system: Staphylococcus aureus; experiment: Potentiation of minocycline-induced antibacterial activity against Staphylococcus aureus ATCC 29213 assessed as FIC incubated for 24 hrs by checkerboard titration assay; format: functional
[29] = test system: Staphylococcus aureus; experiment: Antibacterial activity against methicillin-resistant Staphylococcus aureus NR100 incubated for 16 to 18 hrs by broth microdilution assay; format: functional
[30] = test system: Staphylococcus aureus; experiment: Antibiofilm activity against Staphylococcus aureus ATCC 29213 at 10 times MIC incubated 48 hrs by crystal violet staining based assay relative to control; format: functional
[31] = test system: Staphylococcus aureus; experiment: Synergistic antibacterial activity against Staphylococcus aureus ATCC 29213 incubated for 24 hrs in presence of minocycline by checkerboard titration assay; format: functional; conditions: ATCC 29213, 24 h
[32] = test system: Staphylococcus aureus; experiment: Synergistic antibacterial activity against Staphylococcus aureus ATCC 29213 assessed as sum of FIC for test compound in presence of linezolid and FIC for linezolid in presence of test compound incubated for 24 hrs by checkerboard titration assay; format: functional
[33] = test system: Staphylococcus aureus; experiment: Potentiation of vancomycin-induced antibacterial activity against Staphylococcus aureus ATCC 29213 assessed as FIC incubated for 24 hrs by checkerboard titration assay; format: functional
[34] = Selectivity index, ratio of CC50 for African green monkey Vero cells to MIC for Mycobacterium tuberculosis H37Rv; format: toxicity; conditions: read-out: Selectivity Index

Row | Compound | MIC [2] | MIC [3] | MIC [5] | MIC [6] | MIC [7] | MIC [8] | MIC [10] | FIC [11] | MIC [12] | MIC [13] | MIC [15] | FIC [16] | MIC [18] | FIC [19] | MIC [20] | MIC [22] | FIC [24] | FIC [25] | FIC [26] | MIC [27] | also measured
1 | N#Cc1ccc(/C=C/c2nc3ccccc3c(=O)n2-c2ccc(C(=O)O)c(O)c2)cc1 | 0.125 to 0.25 µg/mL (≈ 0.305 to 0.611 µM) | 0.9 ng/mL | 1.9 ng/mL | 0.03 µg/mL (≈ 0.0733 µM) | 7.5 ng/mL | 0.0312 µg/mL | 1.9 ng/mL | 0.032 | 0.9 ng/mL | 0.03 ng/mL | 3.9 ng/mL | 0.002 | < 0.125 µg/mL | 0.032 | > 64 µg/mL | 1.9 ng/mL | 0.003 | 0.039 | 0.036 | < 0.125 µg/mL | Activity [1]: Active; Activity [4]: Dose-dependent effect; Time [9]: 2 h; Time [14]: 2 h; Activity [17]: Active; Time [21]: 4 h; Time [23]: 0 h; FIC [28]: 0.007; MIC [29]: 0.125 to 0.25 µg/mL (≈ 0.305 to 0.611 µM); Activity [30]: 14.1%; MIC [31]: 1.9 ng/mL; FIC [32]: 0.036; FIC [33]: 0.003
2 | N#Cc1ccc(/C=C/c2nc3cccc(F)c3c(=O)n2-c2cccc(O)c2)cc1 | 0.25 µg/mL (≈ 0.652 µM) | 0.9 ng/mL | 1.9 ng/mL | 0.0625 µg/mL (≈ 0.163 µM) | 7.5 ng/mL | 0.0312 µg/mL | 7.8 ng/mL | 0.0625 | 0.9 ng/mL | 0.03 ng/mL | 3.9 ng/mL | 0.002 | < 0.125 µg/mL | 0.0625 | > 64 µg/mL | 7.8 ng/mL | 0.0018 | 0.0697 | 0.0643 | < 0.125 µg/mL | selectivity ratio [34]: > 12.5; FIC [28]: 0.0072; MIC [29]: 0.5 µg/mL (≈ 1.3 µM); MIC [31]: 7.8 ng/mL; FIC [32]: 0.0662; FIC [33]: 0.0039
